Laboratory results as given in ChEMBL document CHEMBL5518162, “Design, synthesis, and biological evaluation of 2-amino-6-methyl-phenol derivatives targeting lipid peroxidation with potent anti-ferroptotic activities” (Eur J Med Chem, 2024).
The source made the active and inactive calls. The calls are words filed in the database; no cut-off is given here.

Experiments:
[1] = test system: HT-1080; assay: Anti-ferroptotic activity against RSL3-induced ferroptosis in human HT-1080 cells assessed as inhibition of ferroptosis incubated for 24 hrs by CCK-8 assay; assay type: functional, cell-based; conditions: HT-1080, 24 h
[2] = Antioxidant activity assessed as DPPH radical scavenging activity at 10 uM; assay type: functional
[3] = test system: HT-1080; assay: Anti-ferroptotic activity against RSL3-induced ferroptosis in human HT-1080 cells assessed as reduction in cell death at 100 nM incubated for 24 hrs by CCK-8 assay; assay type: functional, cell-based
[4] = test system: HT-1080; assay: Anti-ferroptotic activity against erastin-induced ferroptosis in human HT-1080 cells assessed as reduction in cell death at 100 nM incubated for 24 hrs by CCK-8 assay; assay type: functional, cell-based
[5] = test system: HT-1080; assay: Anti-ferroptotic activity against ML210-induced ferroptosis in human HT-1080 cells assessed as reduction in cell death at 100 nM incubated for 24 hrs by CCK-8 assay; assay type: functional, cell-based
[6] = test system: HT-1080; assay: Anti-ferroptotic activity against FIN56-induced ferroptosis in human HT-1080 cells assessed as reduction in cell death at 100 nM incubated for 24 hrs by CCK-8 assay; assay type: functional, cell-based
[7] = test system: HT-1080; assay: Anti-ferroptotic activity against BSO-induced ferroptosis in human HT-1080 cells assessed as […] at 100 nM incubated for 24 hrs by CCK-8 assay; assay type: functional, cell-based
[8] = test system: Huh-7; assay: Anti-ferroptotic activity against RSL3-induced ferroptosis in human Huh-7 cells assessed as […] at 100 nM incubated for 24 hrs by CCK-8 assay; assay type: functional, cell-based
[9] = test system: HeLa; assay: Anti-ferroptotic activity against RSL3-induced ferroptosis in human HeLa cells assessed as […] at 100 nM incubated for 24 hrs by CCK-8 assay; assay type: functional, cell-based
[10] = test system: HTR-8/SVneo; assay: Anti-ferroptotic activity against RSL3-induced ferroptosis in human HTR-8/SVneo cells assessed as […] at 100 nM incubated for 24 hrs by CCK-8 assay; assay type: functional, cell-based
[11] = test system: HepG2; assay: Anti-ferroptotic activity against RSL3-induced ferroptosis in human HepG2 cells assessed as […] at 100 nM incubated for 24 hrs by CCK-8 assay; assay type: functional, cell-based
[12] = test system: HT-1080; assay: Suppression of RSL-3 induced lipid ROS generation in human HT-1080 cells assessed as decrease in STY-BODIPY oxidation at 100 nM by C11-BODIPY581/591 staining based confocal microscopy; assay type: functional, cell-based
[13] = test system: HT-1080; assay: Suppression of RSL-3 induced lipid ROS generation in human HT-1080 cells assessed as decrease in STY-BODIPY oxidation at 100 nM by C11-BODIPY581/591 staining based flow cytometry analysis; assay type: functional, cell-based
[14] = test system: HT-1080; assay: Suppression of RSL3-induced malondialdehyde adducts accumulation in human HT-1080 cells at 100 nM by lipid peroxidation (MDA) assay; assay type: functional, cell-based
[15] = test system: HT-1080; assay: Effect on TFRC level in RSL3-induced human HT-1080 cells by measuring mRNA level by qRT-PCT analysis; assay type: functional, cell-based
[16] = test system: HT-1080; assay: Effect on DMT1 level in RSL3-induced human HT-1080 cells by measuring mRNA level by qRT-PCT analysis; assay type: functional, cell-based
[17] = test system: HT-1080; assay: Effect on FTH1 level in RSL3-induced human HT-1080 cells by measuring mRNA level by qRT-PCT analysis; assay type: functional, cell-based
[18] = test system: HT-1080; assay: Effect on ACSL4 level in RSL3-induced human HT-1080 cells by measuring mRNA level by qRT-PCT analysis; assay type: functional, cell-based
[19] = test system: HT-1080; assay: Effect on GPX4 level in RSL3-induced human HT-1080 cells by measuring mRNA level by qRT-PCT analysis; assay type: functional, cell-based
[20] = test system: HT-1080; assay: Effect on SLC7A11 level in RSL3-induced human HT-1080 cells by measuring mRNA level by qRT-PCT analysis; assay type: functional, cell-based
[21] = test system: HT-1080; assay: Effect on TFRC level in unstimulated human HT-1080 cells by measuring mRNA level by qRT-PCT analysis; assay type: functional, cell-based
[22] = test system: HT-1080; assay: Effect on DMT1 level in unstimulated human HT-1080 cells by measuring mRNA level by qRT-PCT analysis; assay type: functional, cell-based
[23] = test system: HT-1080; assay: Effect on FTH1 level in unstimulated human HT-1080 cells by measuring mRNA level by qRT-PCT analysis; assay type: functional, cell-based
[24] = test system: HT-1080; assay: Effect on ACSL4 level in unstimulated human HT-1080 cells by measuring mRNA level by qRT-PCT analysis; assay type: functional, cell-based
[25] = test system: HT-1080; assay: Effect on GPX4 level in unstimulated human HT-1080 cells by measuring mRNA level by qRT-PCT analysis; assay type: functional, cell-based
[26] = test system: HT-1080; assay: Effect on SLC7A11 level in unstimulated human HT-1080 cells by measuring mRNA level by qRT-PCT analysis; assay type: functional, cell-based
[27] = test system: Mus musculus; assay: (§1) Protection of kidney in ischemia-reperfusion-induced kidney injury C57BL/6Nj mouse model assessed as reduction of serum creatinine level at 10 mg/kg, ip pretreated for 1 hr followed by bilateral artery clamping for 45 mins and measured after 24 hrs; assay type: functional, organism-based
[28] = test system: Mus musculus; assay: Protection of kidney in ischemia-reperfusion-induced kidney injury C57BL/6Nj mouse model assessed as reduction of blood urea nitrogen level at 10 mg/kg, ip pretreated for 1 hr followed by bilateral artery clamping for 45 mins and measured after 24 hrs; assay type: functional, organism-based
[29] = test system: Mus musculus; assay: (§2) Protection of kidney in ischemia-reperfusion-induced kidney injury C57BL/6Nj mouse model assessed as focal eosinophilic degeneration of renal tubular epithelial cells in the extra medullary zone at 10 mg/kg, ip pretreated for 1 hr followed by bilateral artery clamping for 45 mins and measured after 24 hrs by hematoxylin and eosin staining based analysis; assay type: functional, organism-based; conditions: time 1545.0 min
[30] = test system: Mus musculus; assay: as §2, with “necrosis” for “eosinophilic degeneration”, “and nuclear fixation” for “in the extra medullary zone”; assay type: functional, organism-based; conditions: time 1545.0 min
[31] = test system: Mus musculus; assay: as §1, with “prevention” for “reduction”, “[…] by measuring 4-HNE” for “serum creatinine level”, “hrs by immunohistochemistry staining based analysis” for “hrs”; assay type: functional, organism-based; conditions: time 1545.0 min
[32] = test system: HT-1080; assay: Anti-ferroptotic activity against RSL3-induced ferroptosis in human HT-1080 cells assessed as […] incubated for 24 hrs by CCK-8 assay; assay type: functional, cell-based; conditions: dose 0.1-1 µM
[33] = test system: HT-1080; assay: Anti-ferroptotic activity against erastin-induced ferroptosis in human HT-1080 cells assessed as […] incubated for 24 hrs by CCK-8 assay; assay type: functional, cell-based
[34] = test system: HT-1080; assay: Anti-ferroptotic activity against RSL3-induced ferroptosis in human HT-1080 cells assessed as preservation of cell viability above […] incubated for 24 hrs by CCK-8 assay; assay type: functional, cell-based
[35] = test system: HT-1080; assay: Anti-ferroptotic activity against erastin-induced ferroptosis in human HT-1080 cells assessed as preservation of cell viability above […] incubated for 24 hrs by CCK-8 assay; assay type: functional, cell-based
[36] = test system: HT-1080; assay: Anti-ferroptotic activity against RSL3-induced ferroptosis in human HT-1080 cells assessed as reduction in cell viability at 250 nM incubated for 24 hrs by CCK-8 assay; assay type: functional
[37] = test system: HT-1080; assay: Anti-ferroptotic activity against erastin-induced ferroptosis in human HT-1080 cells assessed as reduction in cell viability at 250 nM incubated for 24 hrs by CCK-8 assay; assay type: functional

Question: With `COC(=O)c1ccc(CNc2cccc(C)c2O)cc1` as the compound, how does the EC50 [1] read?
Answer: 164 nM

Question: And the Activity [2]?
Answer: Active

Question: With `Nc1cccc(C(=O)O)c1O` as the compound, how does the EC50 [1] read?
Answer: > 10000 nM

Question: And the Activity [2]?
Answer: Active

Question: With `Cc1cccc([N+](=O)[O-])c1O` as the compound, how does the EC50 [1] read?
Answer: > 10000 nM

Question: And the Activity [2]?
Answer: Active

Question: Which results are given for `Cc1ccc(CNc2cccc(C)c2O)cc1`?
Answer: EC50 [1]: 25.5 nM; Activity [3]: Active; Activity [4]: Active; Activity [5]: Active; Activity [6]: Active; Activity [7]: Active; Activity [8]: Active; Activity [9]: Active; Activity [10]: Active; Activity [11]: Active; Activity [12]: Active; Activity [13]: Active; Activity [14]: Active; Activity [15]: inactive; Activity [16]: inactive; Activity [17]: inactive; Activity [18]: inactive; Activity [19]: inactive; Activity [20]: inactive; Activity [21]: inactive; Activity [22]: inactive; Activity [23]: inactive; Activity [24]: inactive; Activity [25]: inactive; Activity [26]: inactive; Activity [2]: Active; Activity [27]: Active; Activity [28]: Active; Activity [29]: Active; Activity [30]: Active; Activity [31]: Active

Question: For `COc1ccc(CNc2cccc(C)c2O)cc1`, which EC50 [1] is on record?
Answer: 78.9 nM

Question: And the Activity [2]?
Answer: Active

Question: Which results are given for `CCNc1cccc(C)c1O`?
Answer: EC50 [1]: 60.4 nM; Activity [2]: Active

Question: For `Cc1cccc(NCc2cccc([N+](=O)[O-])c2)c1O`, which EC50 [1] is on record?
Answer: 149 nM

Question: And the Activity [2]?
Answer: Active

Question: With `CCOC(=O)c1ccc(NC2CCCCC2)c(N)c1` as the compound, how does the EC50 [1] read?
Answer: 138 nM

Question: And the Activity [12]?
Answer: Active

Question: What about the Activity [13] of the same compound?
Answer: Active

Question: What about the Activity [2] of the same compound?
Answer: Active

Question: Which EC50 [1] does the source give for `Cc1cccc(N)c1O` here?
Answer: 207 nM

Question: And the Activity [32]?
Answer: Dose-Dependent Effect

Question: And the Activity [33]?
Answer: Dose-Dependent Effect

Question: What about the EC50 ([33]; HT-1080, 24 h) of the same compound?
Answer: 132 nM

Question: And the Activity [34]?
Answer: Active

Question: What about the Activity [35] of the same compound?
Answer: Active

Question: And the Activity [2]?
Answer: Active

Question: And the Activity [36]?
Answer: 100%

Question: And the Activity [37]?
Answer: 100%

Question: With `Cc1cccc(N)c1OCc1ccccc1` as the compound, how does the EC50 [1] read?
Answer: > 10000 nM

Question: What about the Activity [2] of the same compound?
Answer: Active

Question: For `Cc1cccc(NCc2ccc(Cl)cc2)c1O`, which EC50 [1] is on record?
Answer: 131 nM

Question: What about the Activity [12] of the same compound?
Answer: Active

Question: What about the Activity [13] of the same compound?
Answer: Active

Question: What about the Activity [14] of the same compound?
Answer: Active

Question: And the Activity [15]?
Answer: inactive

Question: And the Activity [16]?
Answer: inactive

Question: And the Activity [17]?
Answer: inactive

Question: What about the Activity [18] of the same compound?
Answer: inactive

Question: And the Activity [19]?
Answer: inactive

Question: And the Activity [20]?
Answer: inactive

Question: What about the Activity [21] of the same compound?
Answer: inactive

Question: What about the Activity [22] of the same compound?
Answer: inactive

Question: What about the Activity [23] of the same compound?
Answer: inactive

Question: And the Activity [24]?
Answer: inactive

Question: What about the Activity [25] of the same compound?
Answer: inactive

Question: What about the Activity [26] of the same compound?
Answer: inactive

Question: What about the Activity [2] of the same compound?
Answer: Active

Question: With `Cc1cccc(NCc2ccccc2)c1O` as the compound, how does the EC50 [1] read?
Answer: 181 nM

Question: What about the Activity [2] of the same compound?
Answer: Active

Question: Which results are given for `Cc1cccc(NCc2cccc(C#N)c2)c1O`?
Answer: EC50 [1]: 158 nM; Activity [2]: Active

Question: Which EC50 [1] does the source give for `CC(=O)c1cccc(N)c1O` here?
Answer: > 10000 nM

Question: And the Activity [2]?
Answer: Active

Question: Which EC50 [1] does the source give for `CCCCNc1cccc(C)c1O` here?
Answer: 74.7 nM

Question: And the Activity [12]?
Answer: Active

Question: And the Activity [13]?
Answer: Active

Question: What about the Activity [14] of the same compound?
Answer: Active

Question: What about the Activity [15] of the same compound?
Answer: inactive

Question: And the Activity [16]?
Answer: inactive

Question: And the Activity [17]?
Answer: inactive

Question: And the Activity [18]?
Answer: inactive

Question: What about the Activity [19] of the same compound?
Answer: inactive

Question: What about the Activity [20] of the same compound?
Answer: inactive

Question: And the Activity [21]?
Answer: inactive

Question: And the Activity [22]?
Answer: inactive

Question: And the Activity [23]?
Answer: inactive

Question: What about the Activity [24] of the same compound?
Answer: inactive

Question: And the Activity [25]?
Answer: inactive

Question: What about the Activity [26] of the same compound?
Answer: inactive

Question: What about the Activity [2] of the same compound?
Answer: Active

Question: Which results are given for `COc1c(C)cccc1N`?
Answer: EC50 [1]: > 10000 nM; Activity [2]: Active
